The experiment has as its system Escherichia coli K12. It is filed as cell-based.
Setting [1] is: K12, read-out: Minimum Inhibitory Concentration E. coli K12, M9 media.
Setting [2] is: K12, read-out: Minimum Inhibitory Concentration E. coli K12, M9 plus 5 µg/mL PABA.
Setting [3] is: K12, read-out: Minimum Inhibitory Concentration E. coli K12, M9 plus 20 µg/mL Methionine.

Values after ≈ are worked out from the molar mass of the structure shown. Like-named read-outs stand apart in the source and are kept apart here.

For `COc1cc(NS(=O)(=O)c2ccc(N)cc2)nc(OC)n1` [parent sulfonamide of 19, sulfadimethoxine], the MIC under setting [1] worked out at 1.6 µM (≈ 0.497 µg/mL), the MIC under setting [2] amounted to 537 µM and the MIC under setting [3] came to 3.4 µM.
For `Nc1ccc(S(N)(=O)=O)cc1` [parent sulfonamide of 22, sulfanilamide], in that order: 22 µM (≈ 3.79 µg/mL), more than 934 µM and 58 µM.
In the case of `Cc1cc(NS(=O)(=O)c2ccc(N)cc2)no1` [parent sulfonamide of 15, sulfamethoxazole], the MIC under setting [1] came to 0.8 µM (≈ 0.203 µg/mL), the MIC under setting [2] is 263 µM and the MIC under setting [3] worked out at 1.5 µM.
Turning to `Nc1ccc(S(=O)(=O)c2ccc(N)cc2)cc1` [parent sulfonamide of 21, 4-[(4-aminobenzene)sulfonyl]aniline], the MIC is 25 µM (≈ 6.21 µg/mL) under setting [1], more than 934 µM under setting [2] and 50 µM under setting [3].

The values above are taken from PMC4969146 (Bioorganic & medicinal chemistry letters, 2016).
